Consider eight compounds from ChEMBL document CHEMBL5550221, “Dual 5-HT2A and 5-HT2C Receptor Inverse Agonist That Affords In Vivo Antipsychotic Efficacy with Minimal hERG Inhibition for the Treatment of Dementia-Related Psychosis” (J Med Chem, 2024).

The nature of series [1]: Dissociation constant, pKa of the compound in DMSO solution by capillary electrophoresis. It is filed as physicochemical.
The nature of another series: physchem. The conditions noted are these: 1-octanol/phosphate buffer, pH 7.4.
Series [2] can be described thus: in vitro. The settings on record: human, liver microsomes. A general note: Microsomes from liver hold many membrane-bound enzymes, among them those of drug oxidation.
Description: Metabolic stability in human liver microsomes assessed as compound remaining measured after 30 mins
Series [3] is described as follows: in vitro. The settings on record: rat, liver microsomes.
Description: Metabolic stability in rat liver microsomes assessed as compound remaining measured after 30 mins
Series [4] concerns Rattus norvegicus. Kind of series: Antipsychotic efficacy against MK-801-induced locomotor hyperactivity rat model assessed as reduction in locomotor activity at 30 mg/kg, sc pretreated for 45 mins before MK-801 challenge measured after 15 mins. The series is classed as functional, organism-based. The conditions noted are these: time 60.0 min.
Series [5] deals with Rattus norvegicus. The experiment in a line: In vivo receptor occupancy at 5-HT2A receptor in sc dosed Wistar rat brain in presence of MDL-100907 non-radiolabeled tracer measured pretreated for 45 mins before MDL-100907 challenge measured after 15 mins. It is filed as functional, organism-based. The conditions noted are these: dose 0.1-30 mg/kg, time 60.0 min.
For series [6], the system named is Rattus norvegicus. Kind of series: Induction of dialysate dopamine level in male Wistar rat prefrontal cortex at 30 mg/kg, sc measured upto 120 mins after treatment by microdialysis study. The series is classed as functional, organism-based.
Series [7] concerns Rattus norvegicus. The experiment in a line: Induction of dialysate dopamine level in male Wistar rat prefrontal cortex at 3 mg/kg, sc measured upto 120 mins after treatment by microdialysis study. It is filed as functional, organism-based.
The test system of series [8] is Rattus norvegicus. The experiment in a line: Induction of dialysate dopamine level in male Wistar rat prefrontal cortex at 10 mg/kg, sc measured upto 120 mins after treatment by microdialysis study. It is filed as functional, organism-based.
For series [9], the system named is Rattus norvegicus. The experiment in a line: Induction of dialysate dopamine level in male Wistar rat prefrontal cortex at 3 to 10 mg/kg, sc measured upto 120 mins after treatment by microdialysis study. It is filed as functional, organism-based. The settings on record: dose 3-10 mg/kg.

Active and inactive are the calls of the source. No cut-off for these calls is given here.

The logD is lipophilicity at a set pH, counting ionised and neutral species. Read a low logD as a more hydrophilic compound. Regarding `CC(C)COc1ccc(CNC(=O)N(Cc2ccc(F)cc2)[C@H]2CCN(C)C[C@@H]2F)cc1`, the pKa in series [1] was found to be 6.2. This compound had a logD in “physchem” of 4.9. Further, the fraction remaining at 0.5 h in the series “in vitro [2]” was determined as 7.9%; in “in vitro [3]”, 6.1%.
Turning to `CCCOc1ccc(CNC(=O)N(Cc2ccn(C)n2)C2CCN(C)CC2)cc1`, the logD in “physchem” amounted to 1.2. Moreover, the amount remaining at 0.5 h was found to be 102% in the series “in vitro [2]” and 92% in “in vitro [3]”.
`CC(C)COc1ccc(CNC(=O)N(Cc2ccc(F)cc2)[C@H]2CCN(C)C[C@H]2F)cc1` had a pKa in series [1] of 7.2. In addition, the logD in “physchem” turned out to be 4. Besides, the amount remaining at 0.5 h was found to be 34% in “in vitro [2]” and 27% in the series “in vitro [3]”.
Turning to `CC(C)COc1ccc(CNC(=O)N(Cc2ccc(F)cc2)C2CCN(C)CC2)cc1` [PIMAVANSERIN], the outcome in the series with Rattus norvegicus [4] and in the series on Rattus norvegicus [6] was Active. Besides, the Activity result in the series with Rattus norvegicus [5] is “Dose-Dependent Effect”. The result in the series on Rattus norvegicus [7] and in the series on Rattus norvegicus [8] was inactive. Further, the pKa in [1] was 8.4. Moreover, in the series “physchem”, the logD amounted to 2.8. In addition, the fraction remaining at 0.5 h is 89% in “in vitro [2]” and 90% in “in vitro [3]”.
Compound `CC(C)COc1ccc(CNC(=O)N(Cc2ccn(C)n2)[C@H]2CCN(C)CC23CC3)cc1` displayed a logD in the series “physchem” of 1.7. In addition, the amount remaining at 0.5 h is 88% in “in vitro [2]” and 47% in “in vitro [3]”.
In the series “physchem”, `CC(C)COc1ccc(CNC(=O)N(Cc2ccc(F)cn2)[C@H]2CCN(C)CC23CC3)cc1` came in with a logD of 2.5. Besides, the share remaining at 0.5 h in the series “in vitro [2]” stood at 68%; in the series “in vitro [3]”, 64%.
As for `Cc1cc2c(cc1Cl)N(C(=O)Nc1ccc(Oc3cccnc3C)nc1)CC2`, the result in the series with Rattus norvegicus [9] was Active.
As to `CC(C)COc1ccc(CNC(=O)N(Cc2ccc(F)cc2)[C@H]2CCN(C)CC23CC3)cc1`, the pKa in series [1] was found to be 8.7. The pH-dependent lipophilicity (logD) in “physchem” worked out at 3. For the same compound, the fraction remaining at 0.5 h in “in vitro [2]” and in the series “in vitro [3]” was 48% each time.
